The record followed here is patent US10174050B2, “Spiroisoxazoline compounds having an activity potentiating the activity of an antibiotic” (priority 2012, dated 2019).

Values after ≈ are worked out from the molar mass of the structure shown.

One data set has as its system macrophages infected by M. tuberculosis. The data set is described as follows: Potentiation of ethionamide cell test (HCS). Format: cell-based. The settings on record: ligand concentration necessary to potentiate ten times the activity of ethionamide (inhibit 50% of bacterial growth), constant ethionamide 0.1 μg/mL (1/10th of its CMI99).
A word on the EC50: it is the concentration at which the effect is half-maximal. Take `O=C(CCC(F)(F)F)N1CCC2(CC(c3ccccc3)=NO2)C1` (stereo not shown) [Compound 4]: the concentration giving a half-maximal response (EC50) was found to be 530 nM. The same measure, in the same setting: the result for `O=C(CCC(F)(F)F)N1CC2(CC(c3ccccc3)=NO2)C1` [Compound 5] reads 110 nM; that for `O=C(CCC(F)(F)F)N1CCC2(CC1)CC(c1cccs1)=NO2` [Compound 6], 30 nM; that for `O=C(CCC(F)(F)F)N1CCC2(CC1)CC(c1nccs1)=NO2` [Compound 7], 40 nM.

As for `CC(C)CCC(=O)N1CCC2(CC1)CC(c1cccs1)=NO2` [Compound 8], the EC50 came to 130 nM. In the case of `O=C(CCCC(F)(F)F)N1CCC2(CC1)CC(c1nccs1)=NO2` [Compound 9], the 50% effective concentration (EC50) was found to be 70 nM. Still for that read-out and setting: the value for `O=C(CCC(F)(F)F)N1CCC2(CC1)CC(c1ccccc1)=NO2` [Compound 10] was 20 nM; that for `Cc1ccc(C2=NOC3(CCN(C(=O)CCC(F)(F)F)CC3)C2)cc1` [Compound 11] was 2500 nM; that for `COc1ccccc1C1=NOC2(CCN(C(=O)CCC(F)(F)F)CC2)C1` [Compound 14] was 20 nM.

As to `COc1cccc(C2=NOC3(CCN(C(=O)CCC(F)(F)F)CC3)C2)c1` [Compound 15], the 50% effective concentration (EC50) is 290 nM.

As to `O=C(CCC(F)(F)F)N1CCC2(CC1)CC(c1ccc3c(c1)OCO3)=NO2` [Compound 18], the EC50 is 1300 nM. For the compound `O=C(CCC(F)(F)F)N1CCC2(CC1)CC(c1ccccc1Cl)=NO2` [Compound 20], the half-maximal effective concentration (EC50) is 30 nM. Still for that read-out and setting: the result for `O=C(CCC(F)(F)F)N1CCC2(CC1)CC(c1ccc(Cl)cc1)=NO2` [Compound 21] reads 5800 nM; that for `O=C(CCC(F)(F)F)N1CCC2(CC1)CC(c1ccc(F)cc1)=NO2` [Compound 22], 500 nM; that for `O=C(CCC(F)(F)F)N1CCC2(CC1)CC(c1cccc(C(F)(F)F)c1)=NO2` [Compound 23], 400 nM. Same read-out and setting: the value for `O=C(CCC(F)(F)F)N1CCC2(CC1)CC(C1CCCCC1)=NO2` [Compound 27] was 80 nM; that for `O=C(CCC(F)(F)F)N1CCC2(CC1)CC(C1CCCC1)=NO2` [Compound 28] was 80 nM. Consider `O=C(CCC(F)(F)F)N1CCC2(CC1)CC(Cc1ccccc1)=NO2` [Compound 29], for which the EC50 was determined as 20 nM. For `O=C(CCC(F)(F)F)N1CCC2(CC1)CC(c1ccco1)=NO2` [Compound 30], the EC50 stood at 50 nM. As to `O=C(CCC(F)(F)F)N1CCC2(CC1)CC(c1ccccn1)=NO2` [Compound 31], the EC50 turned out to be 150 nM. With `CC(C)CCC(=O)N1CCC2(CC1)CC(c1ccccc1)=NO2` [Compound 32], the EC50 was 5000 nM. Same read-out and setting: the value for `CC(C)CCC(=O)N1CCC2(CC1)CC(c1ccccn1)=NO2` [Compound 45] was 1300 nM; that for `CC(C)CCC(=O)N1CCC2(CC1)CC(c1ccccc1Cl)=NO2` [Compound 46] was 1300 nM.

Take `COc1ccccc1C1=NOC2(CCN(C(=O)CCC(C)C)CC2)C1` [Compound 49]: the EC50 amounted to 630 nM. Take `O=C(CCCC(F)(F)F)N1CCC2(CC1)CC(c1ccccc1Cl)=NO2` [Compound 50]: the concentration giving a half-maximal response (EC50) was determined as 770 nM. In the case of `O=C(CCCC(F)(F)F)N1CCC2(CC1)CC(c1ccccc1)=NO2` [Compound 51], the 50% effective concentration (EC50) is 1000 nM.

Consider `O=C(CCc1ccccc1)N1CCC2(CC1)CC(c1ccccc1)=NO2` [Compound 59], for which the EC50 was 1000 nM.

Tested on in a further data set: not listed separately
Nature of the data set: physchem. Format: physicochemical. The settings on record: pH 7.4, aqueous buffer, kinetic from dmso stock. On the procedure:
40 μL of a 10 mM solution in DMSO of the sample are added to 1.96 mL MeOH or PBS at pH 7.4. The samples are then agitated during 24 h at RT, centrifuged during 5 min and then filtrated on filters of 0.45 μm pore size. 20 μL of each solution are then added to 180 μL MeOH and then analyzed by LC-MS. The solubility is determined as ratio of the surfaces of the mass signals PBS/MeOH.
As usually defined, the solubility is the concentration that dissolves in the medium under given conditions. Read a low solubility as little dissolved substance. On to `O=C(CCC(F)(F)F)N1CCC2(CC1)CC(c1ccccc1)=NO2` [Compound 10], for which the solubility at 24 h came out at 150 µM (≈ 51.1 µg/mL).
